One block for each compound: values may come before it.
Legend:
rat EAE model = test: Rat experimental autoimmune encephalomyelitis (EAE) model, preventive treatment; assay type: in vivo
Procedure: A further study was carried out to study the impact of Lp-PLA2 inhibitors on modulating M1/M2 imbalance. In this study, rats were induced to develop experimental autoimmune encephalomyelitis (EAE) by immunization with myelin basic protein (MBP) antigen and treated with a known Lp-PLA2 inhibitor: 5-((9-Methoxy-4-oxo-6,7-dihydro-4H-pyrimido[6,1-a]isoquinolin-2-yl)oxy)-2-(3-(trifluoromethyl)phenoxy)benzonitrile (See PCT application no. PCT/CN2011/001597). In this preventive treatment model, the compound was administered at day 0 (day of immunization) and continued to administer until day 22. The study lasted for 25 days. Rats were subsequently monitored for symptoms of EAE. Rats were immunized with MBP to develop EAE and symptoms were monitored daily. Plasma Lp-PLA2 activity, OxLDL, and LysoPC concentration were determined at different time points through the course of EAE.

[1] = test system: splenic macrophages and CNS infiltrating macrophages; test: Ex vivo analysis of M1 and M2 markers in macrophages of EAE rats by realtime PCR; set-up: species or system rat; conditions: macrophages of compound treated EAE rats, day 13 post MBP-immunization
Procedure: Ex vivo analysis of proinflammatory (M1) and anti-inflammatory (M2) markers in control and compound treated EAE rats. Splenic macrophages were harvested at day 13 post MBP-immunization and assayed for expression of a variety of markers by realtime PCR. CNS infiltrating cells were harvested and macrophages were analyzed for expression of M1 and M2 markers by realtime PCR.

Lp-PLA2 in human plasma [2] = target: T1, Lp-PLA2 in human plasma (Homo sapiens, UniProt Q13093); test: Lp-PLA2 human plasma assay, Thio-PAF assay (3a); assay type: biochemical; conditions: pooled human plasma, Examples 1-137, read-out: pIC50 in the Lp-PLA2 human plasma assay (converted)
T1 construct: from tissue; host or cells: pooled human plasma
T1 sequence (Q13093 22-441): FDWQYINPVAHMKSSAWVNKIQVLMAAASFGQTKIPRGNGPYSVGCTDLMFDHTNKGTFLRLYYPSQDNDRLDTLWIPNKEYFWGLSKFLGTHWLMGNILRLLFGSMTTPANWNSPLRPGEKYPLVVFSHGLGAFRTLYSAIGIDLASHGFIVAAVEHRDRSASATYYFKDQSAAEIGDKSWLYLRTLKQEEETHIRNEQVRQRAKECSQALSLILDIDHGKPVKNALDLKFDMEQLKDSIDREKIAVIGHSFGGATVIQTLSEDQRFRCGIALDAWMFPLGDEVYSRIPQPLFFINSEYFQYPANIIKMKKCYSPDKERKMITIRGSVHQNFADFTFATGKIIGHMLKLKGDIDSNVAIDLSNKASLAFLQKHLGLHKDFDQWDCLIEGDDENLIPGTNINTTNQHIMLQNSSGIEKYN
From the text: The human plasma assay utilizes a thioester analog of PAF (phosphatidylcholine), where hydrolysis yields to the formation of a phospholipid containing a free thiol group. The amount of thiol is quantitated continuously by reacting with CPM (7-diethylamino-3-(4′-maleimidylphenyl)-4-methylcoumarin), a maleimide which increases in fluoresence after Michael addition of thiols. This assay may detect the activity of Lp-PLA2 in human plasma, as determined by specific inhibition by Lp-PLA2 inhibitors.
The thio-PAF assay was run as a quenched 15 μL assay. Compounds source plate was prepared by making 1:3 (by volume) serial dilution of the compounds into pure DMSO on 384-well microplate. 0.01 μL of compounds on compound source plate were transferred to 384 well Greiner 784076 (black) low-volume plates by ECHO liquid dispenser. 8 μL pooled human plasma, which was previously aliquoted and frozen, was added. Plates were centrifuged for 10 sec at 500 rpm. After 30 minutes preincubation, 2 μL of substrate solution comprising 2.5 mM 2-thio-PAF [from ethanol stock], 32 μM CPM [from a DMSO stock] and 3.2 mM NEM (N-ethylmaleimide) [made fresh daily in DMSO] in assay buffer of 50 mM HEPES, pH 7.4, 150 mM NaCl, 1 mM CHAPS was added to 384 well Greiner 784076 (black) low-volume plates by BRAVO liquid handling station. […] Plates were read at ex: 380 /em: 485 using Envision microplate reader. […]

[3] = target: T2, recombinant human Lp-PLA2 (Homo sapiens, UniProt Q13093); test: Recombinant human Lp-PLA2 assay (rhLp-PLA2), PED6 assay; assay type: biochemical; conditions: Examples 1-137, read-out: rhLp-PLA2 (pIC50) (converted)
T2 sequence (Q13093 22-441): T1 sequence (Q13093 22-441)
From the text: N-((6-(2,4-dinitrophenyl)amino)-hexanoyl)-2-(4,4-difluoro-5,7-dimethyl -4-bora-3a,4a-diaza-s-indacene-3-pentanoyl)-1-hexadecanoyl-sn-glycero-3-phosphoethanolamine, triethylammonium salt (PED6) is a commercially available fluorescently-labeled phospholipid, which is commercially available from Invitrogene and Molecular Probes. There is a quenching para-nitro phenyl (PNP) group in the sn3 position and a Bodipy fluorescein (FL) group in the sn2 position. Upon cleavage with Lp-PLA2, the Bodipy FL group is liberated and then may result in an increase in fluorescence. Inhibitors of Lp-PLA2 therefore prevent this cleavage and no fluorescent increase is observed.
The PED6 assay was run as an unquenched 10 μL assay. The source plate containing the compounds to be tested was prepared by making 1:3 (by volume) serial dilution of the compounds within DMSO on 384-well microplate. Then, 0.01 μL of the compounds on compound source plate were transferred into 384 well Greiner 784076 (black) plates using ECHO liquid dispenser. […] The plates were read for fluorescence intensity at ex: 480/em: 540 using ViewLux microplate imager for Envision spectrofluroimeters pIC50 data, curve and QC analysis was conducted by using XL fit module in Excel.

[4] = target: T2, recombinant human Lp-PLA2; test: Recombinant human Lp-PLA2 assay, hrThioPAF assay; assay type: biochemical; conditions: Example 138, read-out: rhLp-PLA2 (pIC50) (converted)
From the text: 1-O-hexadecyl-2-deoxy-2-thio-S-acetyl-sn-glyceryl-3-phosphorylcholine (2-thio-PAF) is a substrate for PAF-hydrolases (PAF-AH) commercially available from Cayman Chemical. Upon cleavage with PAF-AH, the free thiol is released at the sn-2 position and can then react with 7-diethylamino-3-(4′-maleimidylphenyl)-4-methylcoumarin (CPM) a thiol-reactive coumarin. This reaction (Michael addition) results in an increase in fluorescence. Inhibitors of Lp-PLA2 therefore prevent this cleavage and no fluorescent increase is observed.
The Thio-PAF assay was run as an unquenched 20 μL assay. The source plate containing the compounds to be tested was prepared by making 1:3 (by volume) serial dilution of the compounds within DMSO on 384-well microplate. Then, 5 μL of the compounds on compound source plate were transferred into 384 well Greiner 784076 (black) plates using STAR+ (Hamilton) liquid dispenser. 10 μL of recombinant human Lp-PLA2 enzyme (20 pM rhLp-PLA2 in assay buffer of 50 mM HEPES, pH 7.4, 150 mM NaCl, 1 mM CHAPS) was added to each well of the plate. […] The plates were read for fluorescence intensity at ex: 380 nm/em: 485 nm using Envision plate reader (Perkin Elmer). […]

Lp-PLA2 in human plasma [5] = target: T1, Lp-PLA2 in human plasma; test: Lp-PLA2 human plasma assay, alternative Thio-PAF assay (3b); assay type: biochemical; conditions: pooled human plasma, Example 138, read-out: pIC50 in the Lp-PLA2 human plasma assay (converted)
Procedure: The human plasma assay utilizes the same thioester analog of PAF as described in (1b) “hr ThioPAF” assay. This assay may detect the activity of Lp-PLA2 in human plasma, as determined by specific inhibition by Lp-PLA2 inhibitors.
The thio-PAF assay was run as a quenched 20 μL assay. Compounds source plate was prepared by making 1:3 (by volume) serial dilution of the compounds into pure DMSO on 96-well microplate. 5 μL of compounds on compound source plate were transferred to 96-well Corning 3686 (black) low-volume plates by STAR+ (Hamilton) liquid dispenser. 10 μL pooled human plasma, which was previously aliquoted and frozen, was added. Plates were centrifuged for 30 sec at 1000 rpm. After 15 minutes preincubation at room temperature, 5 μL of substrate solution comprising 2 mM 2-thio-PAF [from ethanol stock], 52 μM CPM [from a DMSO stock] and 2.5 mM NEM (N-ethylmaleimide) [made fresh daily in DMSO] in assay buffer (50 mM HEPES, pH 7.4, 150 mM NaCl, 1 mM CHAPS) was added to 96-well Corning 3686 (black) low-volume plates. After 3 mins, reaction was quenched with 10 μL of 5% aqueous trifluoroacetic acid (TFA). Plates were centrifuged 30 sec at 1000 rpm, covered to protect from light and incubated for 10 min at room temperature. Plates were read at ex: 380 nm/em: 485 nm using Envision plate reader (Perkin Elmer). […]

Structure (SMILES): COc1ccc2c(c1)CCn1c-2cc(Oc2ccc(Oc3cccc(C(F)(F)F)c3)c(C#N)c2)nc1=O [5-((9-Methoxy-4-oxo-6,7-dihydro-4H-pyrimido[6,1-a]isoquinolin-2-yl)oxy)-2-(3-(trifluoromethyl)phenoxy)benzonitrile]
plasma Lp-PLA2 activity (rat EAE model; rat EAE plasma): decreased
plasma LysoPC levels (rat EAE model; rat EAE plasma): decreased
clinical disease (EAE symptoms) (rat EAE model; rats immunized with MBP, compound administered day 0 until day 22): reduction in clinical disease
anti-inflammatory (M2) markers expression [1]: increase in M2 markers
proinflammatory (M1) markers expression [1]: decrease in M1 markers

Structure (SMILES): C[C@H]1Cn2c(cc(OCc3cc(F)c(Oc4ccnc(C(F)(F)F)c4)c(F)c3)nc2=O)N1 [E131, (S)-7-((3,5-difluoro-4-((2-(trifluoromethyl)pyridin-4-yl)oxy)benzyl)oxy)-2-methyl-2,3-dihydroimidazo[1,2-c]pyrimidin-5(1H)-one]
IC50 [3]: 0.251 nM

Structure (SMILES): C[C@@H]1Cn2c(cc(OCc3cc(F)c(Oc4ccnc(C(F)(F)F)c4)c(F)c3)nc2=O)N1 [E138, (R)-7-((3,5-difluoro-4-((2-(trifluoromethyl)pyridin-4-yl)oxy)benzyl)oxy)-2-methyl-2,3-dihydroimidazo[1,2-c]pyrimidin-5(1H)-one]
IC50 [4]: 0.794 nM
IC50 (Lp-PLA2 in human plasma [5]): ≤ 100 nM

Next, values leading:

IC50 (Lp-PLA2 in human plasma [2]): > 10000 nM
Structure (SMILES): C[C@H]1Cn2c(cc(OCc3cccc(F)c3F)nc2=O)N1C [E111, (S)-7-((2,3-difluorobenzyl)oxy)-1,2-dimethyl-2,3-dihydroimidazo[1,2-c]pyrimidin-5(1H)-one]

IC50 (Lp-PLA2 in human plasma [2]): > 10000 nM
Structure (SMILES): CC1(C)Cn2c(cc(OCc3ccc(F)c(F)c3)nc2=O)N1 [E120, 7-((3,4-difluorobenzyl)oxy)-2,2-dimethyl-2,3-dihydroimidazo[1,2-c]pyrimidin-5(1H)-one]

Source: patent US9708330B2, “2,3-dihydroimidazol[1,2-C]pyrimidin-5(1-H)-one based ipoprotein-associated phospholipase A2 (Lp-PLA2) inhibitors” (GlaxoSmithKline Intellectual Property Development Limited, priority 2013, dated 2017)
